Data set [1] in a line: Solubility and chemical stability of 1α,24-(OH)2 --V.D3. The format is physicochemical. As to conditions: non-polar solvent.
Data set [2] deals with excised skin (full skin) of Wistar rat. The experiment in a line: Skin permeability of active ingredient from cream composition. Format: in vitro ADME. As to conditions: 0.25 part by weight in bases of Examples 1, 4, 5 and Control Examples 14 to 21; Test Method 3. The text has this: For the skin, use was made of skin cut off from a dilapidated Wistar rat (full skin=including stratum corneum, epidermis, and dermis). For the reservoir solution, use was made of Hanks buffer (pH=7.4) plus 10% bovine fetal serum. […] (For the method of assay, see below.)

Structures are written as SMILES.

The record followed here is US5612327A, “1α,24-(OH)2 -cholecalciferol emulsion composition and method for treating psoriasis” (priority 1993, dated 1997).

Take `C=C1C(=CC=C2CCCC3(C)C2CCC3C(C)CCC(O)C(C)C)CC(O)CC1O` (stereo not drawn) [1α,24-(OH)2 --V.D3, 1α,24-dihydroxylcholecalciferol]: in data set [1], the “Solubility (in words)” value was “does not dissolve much at all in a non-polar solvent”.
For the molecule `CC(=O)OCC(=O)[C@@]1(O)CC[C@H]2[C@@H]3CCC4=CC(=O)CC[C@]4(C)[C@H]3[C@@H](O)C[C@@]21C` [hydrocortisone acetate], the “Skin permeability of hydrocortisone acetate (in words)” value in data set [2] is “almost completely unrelated to the weight ratio of the stearyl alcohol and cetyl alcohol”.
